tested on: HepG2-A16-CD81EGFP cells; test: cells; conditions: Homo sapiens, HepG2, read-out: HepG2 Tox% @ 50 uM rep1

| Compound | cytotoxicity at 50 µM [%] |
| --- | --- |
| c1ccc(C2=Nc3ccccc3N=C(c3ccccc3)c3ccccc32)cc1 [MMV007113] | 22 |
| Cc1cc(Nc2ccc(OCc3ccccc3)cc2)nc2cc(O)ccc12 [MMV007181] | 98 |
| COc1cc(-c2nc(-c3ccc(Sc4ccccc4)cc3)c(-c3ccccc3)[nH]2)cc(OC)c1O [MMV007273] | 89 |
| Cc1ccc(F)cc1NC(=O)c1cc(Cl)ccc1Nc1ccccc1 [MMV007275] | -8 |
| O=C(NCc1ccco1)C1CCN(S(=O)(=O)c2ccc(Br)cc2)CC1 [MMV007430] | 28 |
| Cc1ccc(CSCc2ccc(C(=O)NC3CC3)o2)cc1 [MMV007571] | 66 |
| COc1ccc(C(=O)C(CCC(CNC(C)(C)C)C(=O)c2ccc(OC)cc2)CNC(C)(C)C)cc1 (stereo not shown) [MMV007591] | 101 |
| CC(=O)NCCc1nc2ccccc2n1Cc1ccc(C(C)C)cc1 [MMV007617] | 81 |
| Cc1ccc(C)c(-c2csc(Nc3ccc(C)c(C)c3)n2)c1 [MMV007654] | -26 |
| COc1ccc2c(c1)OC(O)(C(F)(F)C(F)(F)F)CC2=O (stereo not shown) [MMV007839] | 96 |

same assay, conditions: Homo sapiens, HepG2, read-out: HepG2 Tox% @ 50 uM rep2

| Compound | cytotoxicity at 50 µM [%] |
| --- | --- |
| O=C(NCc1ccco1)C1CCN(S(=O)(=O)c2ccc(Br)cc2)CC1 [MMV007430] | 34 |
| Cc1ccc(CSCc2ccc(C(=O)NC3CC3)o2)cc1 [MMV007571] | 74 |
| CC(=O)NCCc1nc2ccccc2n1Cc1ccc(C(C)C)cc1 [MMV007617] | 80 |
| COc1ccc2c(c1)OC(O)(C(F)(F)C(F)(F)F)CC2=O (stereo not shown) [MMV007839] | 96 |

same assay, conditions: Homo sapiens, HepG2, read-out: Tox IC50

| Compound | IC50 [µM] |
| --- | --- |
| c1ccc(C2=Nc3ccccc3N=C(c3ccccc3)c3ccccc32)cc1 [MMV007113] | > 50 |
| COc1cc(-c2nc(-c3ccc(Sc4ccccc4)cc3)c(-c3ccccc3)[nH]2)cc(OC)c1O [MMV007273] | 34.1 |
| COc1ccc(C(=O)C(CCC(CNC(C)(C)C)C(=O)c2ccc(OC)cc2)CNC(C)(C)C)cc1 (stereo not shown) [MMV007591] | 25.3 |

same assay, conditions: Homo sapiens, HepG2, read-out: Tox max inhibition (%) @ 50 uM

| Compound | inhibition at 50 µM [%] |
| --- | --- |
| c1ccc(C2=Nc3ccccc3N=C(c3ccccc3)c3ccccc32)cc1 [MMV007113] | 15 |
| COc1cc(-c2nc(-c3ccc(Sc4ccccc4)cc3)c(-c3ccccc3)[nH]2)cc(OC)c1O [MMV007273] | 82 |
| COc1ccc(C(=O)C(CCC(CNC(C)(C)C)C(=O)c2ccc(OC)cc2)CNC(C)(C)C)cc1 (stereo not shown) [MMV007591] | 92 |

tested on: Plasmodium berghei (Pb-Luc) exoerythrocytic-stage parasites; test: microbe, parasite or virus in culture; conditions: read-out: Inhibition% @ 50 uM rep1

| Compound | inhibition at 50 µM [%] |
| --- | --- |
| c1ccc(C2=Nc3ccccc3N=C(c3ccccc3)c3ccccc32)cc1 [MMV007113] | 94 |
| Cc1cc(Nc2ccc(OCc3ccccc3)cc2)nc2cc(O)ccc12 [MMV007181] | 103 |
| COc1cc(-c2nc(-c3ccc(Sc4ccccc4)cc3)c(-c3ccccc3)[nH]2)cc(OC)c1O [MMV007273] | 101 |
| Cc1ccc(F)cc1NC(=O)c1cc(Cl)ccc1Nc1ccccc1 [MMV007275] | 75 |
| O=C(NCc1ccco1)C1CCN(S(=O)(=O)c2ccc(Br)cc2)CC1 [MMV007430] | 103 |
| Cc1ccc(CSCc2ccc(C(=O)NC3CC3)o2)cc1 [MMV007571] | 103 |
| COc1ccc(C(=O)C(CCC(CNC(C)(C)C)C(=O)c2ccc(OC)cc2)CNC(C)(C)C)cc1 (stereo not shown) [MMV007591] | 103 |
| CC(=O)NCCc1nc2ccccc2n1Cc1ccc(C(C)C)cc1 [MMV007617] | 104 |
| Cc1ccc(C)c(-c2csc(Nc3ccc(C)c(C)c3)n2)c1 [MMV007654] | -107 |
| COc1ccc2c(c1)OC(O)(C(F)(F)C(F)(F)F)CC2=O (stereo not shown) [MMV007839] | 102 |

same assay, conditions: read-out: Inhibition% @ 50 uM rep2

| Compound | inhibition at 50 µM [%] |
| --- | --- |
| c1ccc(C2=Nc3ccccc3N=C(c3ccccc3)c3ccccc32)cc1 [MMV007113] | 95 |
| Cc1cc(Nc2ccc(OCc3ccccc3)cc2)nc2cc(O)ccc12 [MMV007181] | 103 |
| COc1cc(-c2nc(-c3ccc(Sc4ccccc4)cc3)c(-c3ccccc3)[nH]2)cc(OC)c1O [MMV007273] | 102 |
| Cc1ccc(F)cc1NC(=O)c1cc(Cl)ccc1Nc1ccccc1 [MMV007275] | 69 |
| O=C(NCc1ccco1)C1CCN(S(=O)(=O)c2ccc(Br)cc2)CC1 [MMV007430] | 105 |
| Cc1ccc(CSCc2ccc(C(=O)NC3CC3)o2)cc1 [MMV007571] | 103 |
| COc1ccc(C(=O)C(CCC(CNC(C)(C)C)C(=O)c2ccc(OC)cc2)CNC(C)(C)C)cc1 (stereo not shown) [MMV007591] | 104 |
| CC(=O)NCCc1nc2ccccc2n1Cc1ccc(C(C)C)cc1 [MMV007617] | 106 |
| Cc1ccc(C)c(-c2csc(Nc3ccc(C)c(C)c3)n2)c1 [MMV007654] | -33 |
| COc1ccc2c(c1)OC(O)(C(F)(F)C(F)(F)F)CC2=O (stereo not shown) [MMV007839] | 98 |

same assay, conditions: read-out: PbLuc IC50, dose response, 1/3 dilutions, max conc. 10 or 50 uM, unit inferred

| Compound | IC50 [µM] |
| --- | --- |
| COc1cc(-c2nc(-c3ccc(Sc4ccccc4)cc3)c(-c3ccccc3)[nH]2)cc(OC)c1O [MMV007273] | 7.67 |
| COc1ccc(C(=O)C(CCC(CNC(C)(C)C)C(=O)c2ccc(OC)cc2)CNC(C)(C)C)cc1 (stereo not shown) [MMV007591] | 7.2 |

same assay, conditions: read-out: PbLuc IC50, dose response, unit inferred

| Compound | IC50 [µM] |
| --- | --- |
| c1ccc(C2=Nc3ccccc3N=C(c3ccccc3)c3ccccc32)cc1 [MMV007113] | > 50 |

same assay, conditions: read-out: PbLuc max inhibition (%) @ 50 uM

| Compound | inhibition at 50 µM [%] |
| --- | --- |
| c1ccc(C2=Nc3ccccc3N=C(c3ccccc3)c3ccccc32)cc1 [MMV007113] | 40 |
| COc1cc(-c2nc(-c3ccc(Sc4ccccc4)cc3)c(-c3ccccc3)[nH]2)cc(OC)c1O [MMV007273] | 100 |
| COc1ccc(C(=O)C(CCC(CNC(C)(C)C)C(=O)c2ccc(OC)cc2)CNC(C)(C)C)cc1 (stereo not shown) [MMV007591] | 99 |

From paper PMC4890880 (ACS infectious diseases, 2016)
